In brackets after ≈: the same amount, converted by molar mass. Where two headings read alike, the source gives them in different places.
Columns and labels:
[1] = Solubility of paclitaxel/lipid complex in oil (soybean oil, MCO, mixed oil); format: physicochemical; conditions: for solubility at 1 h: saturated solution
Experimental: Take 4 g of paclitaxel, add cholesterol, 7-dehydrocholesterol and ergosterol respectively in accordance with the amount ratio as stated in Table 2 below, move to a rotary evaporator together, dissolve with 500 ml of acetone each, mix at 45° C. for 1 hour then remove the solvent by the rotary evaporation method, vacuum dry at 65° C. for 15 hours. Take a quantity of each complex formed, add 20 g of soybean oil for injection used, heat in water bath for 1 hour and shake, obtain saturated solutions.
Using acetone as the solvent, the molar ratio of paclitaxel to cholesterol being 1:1, the reaction temperature at 35° C., the reaction time being 0.5 h, the effect of the paclitaxel concentration (16.0, 8.0, 4.0, 2.0, 1.0 and 0.5 mg/ml) on the complex preparation was investigated.
Filter the solution, take a quantity of the successive filtrate, dilute with absolute ethanol, carry out an HPLC analysis, calculate the solubility of complex in oil; take a quantity of paclitaxel, repeat the procedure.

[2] = Solubility of paclitaxel cholesterol complex in n-octanol; format: physicochemical; conditions: organic solvent or mixture, thermodynamic from solid, 25° C., saturated solution, read-out: drug solubility in n-octanol
Experimental: Take 5 ml of the solution, filter by 0.45 μm of membrane, take an amount of the successive filtrate, dilute with absolute ethanol, carry out the ultraviolet spectrophotometry method, calculate the apparent solubility of the physical mixture and cholesterol in n-octanol, compared the results with paclitaxel.

- drug solubility in vegetable oil: Mixed oil ([1]; Table 4, soybean oil and MEDIUM CHAIN OIL (volume ratio of 1:1), 60° C.): 1.36 mg/mL
- solubility at 1 h ([1]; medium chain oil (MCO), oil or lipid, thermodynamic from solid, Table 4, MEDIUM CHAIN OIL, 60° C., read-out: drug solubility in vegetable oil: MCO): 2.37 mg/mL (≈ 2780 µM)
- solubility at 1 h ([1]; oil or lipid, thermodynamic from solid, Table 4, soybean oil for injection, 60° C., read-out: drug solubility in vegetable oil: Soybean oil): 0.27 mg/mL (≈ 316 µM)
- solubility at 1 h ([1]; soybean oil for injection, oil or lipid, thermodynamic from solid, Table 2, effect of paclitaxel/steroid amount ratio, HPLC, read-out: Solubility in soybean oil): 0.27 mg/mL
- solubility ([1]; soybean oil, oil or lipid, thermodynamic from solid, Table 1, complexes per CN200810168213.X, calculated as paclitaxel): 0.27 mg/mL (≈ 316 µM)
- solubility at 24 h [2]: 8.86 mg/mL (≈ 10400 µM)
Structure (SMILES): CC(=O)O[C@H]1C(=O)[C@@]2(C)[C@H]([C@H](OC(=O)c3ccccc3)[C@]3(O)C[C@H](OC(=O)[C@H](O)[C@@H](NC(=O)c4ccccc4)c4ccccc4)C(C)=C1C3(C)C)[C@]1(OC(C)=O)CO[C@@H]1C[C@@H]2O [Paclitaxel]
